Assay results published in ChEMBL document CHEMBL5528053, “Discovery of Novel Isoquinoline Analogues as Dual Tubulin Polymerization/V-ATPase Inhibitors with Immunogenic Cell Death Induction” (J Med Chem, 2024).
Calls of active or inactive are those of the source. The calls are words filed in the database; no cut-off is given here.

Key:
[1] = Toxicity in ICR mouse assessed as effect on LDH level at 10 mg/kg, ip measured for 14 days; format: organism-based; conditions: in vivo, 336 h, time 14 day
PC-3 [2] = assay: Induction of immunogenic cell death in human PC-3 cells assessed as increase in CRT translocation to cell surface at 200 nM measured after 12 hrs in presence of TUDCA by DAPI staining based analysis; format: functional
PC-3 [3] = assay: Inhibition of V-ATPase activity in human PC-3 cells at 50 nM measured after 24 hrs by colorimetric assay relative to control; format: cell-based
PC-3 [4] = assay: Induction of endoplasmic reticulum (ER) stress in human PC-3 cells assessed as upregulation of CHOP phosphorylation level at 50 to 200 nM measured after 24 hrs by Western blot analysis; format: functional, cell-based; conditions: dose 50-200 nM
PC-3 [5] = assay: Induction of cell cycle arrest in human PC-3 cells assessed as reduction in CDC2 phosphorylation at Thr161 residue at 50 to 200 nM incubated for 24 hrs by DAPI staining based analysis; format: functional; conditions: dose 50-200 nM
[6] = Toxicity in ICR mouse assessed as effect on BUN level at 10 mg/kg, ip measured for 14 days; format: organism-based; conditions: in vivo, 336 h, time 14 day
A549 = assay: Inhibition of cell migration in human A549 cells at upto 100 nM incubated for 24 hrs by inverted fluorescence microscope analysis; format: functional, cell-based
[7] = Antitumor immunity against mouse RM1 cells homografted in C57BL/6 mouse model assessed as increase in tumor infiltrating CD3+CD8+T cells (CTLs) at 5 mg/kg, iv administered every two days for 14 days by flow cytometry analysis (reference value: 0.89%); format: functional; conditions: time 14 day
PC-3 [8] = assay: Induction of cell cycle arrest in human PC-3 cells assessed as accumulation of cells at G1 phase at 200 nM incubated for 24 hrs by flow cytometry analysis (reference value: 49.4%); format: functional
PC-3 [9] = assay: Induction of apoptosis in human PC-3 cells assessed as upregulation of cleaved caspase-3 level at 50 to 200 nM incubated for 24 hrs by Western blot analysis; format: functional, cell-based; conditions: dose 50-200 nM
PC-3 [10] = assay: Induction of cell cycle arrest in human PC-3 cells assessed as accumulation of cells at G2/M phase at 200 nM incubated for 24 hrs by flow cytometry analysis (reference value: 19.5%); format: functional
[11] = Antitumor activity against mouse RM1 cells xenografted in immunocompetent […] mouse model assessed as tumor growth inhibition at 5 mg/kg, iv measured every two days for 14 days relative to control; format: functional; conditions: RM1, 336 h, time 14 day, read-out: TGI
PC-3 [12] = assay: Induction of apoptosis in human PC-3 cells assessed as early apoptotic cells at 50 nM measured after 24 hrs by annexin V-FITC and PI staining based flow cytometry analysis (reference value: 1.03%); format: functional
PC-3 [13] = assay: Induction of apoptosis in human PC-3 cells assessed as necrotic cells at 50 nM measured after 24 hrs by annexin V-FITC and PI staining based flow cytometry analysis (reference value: 6.01%); format: functional
PC-3 [14] = assay: Induction of immunogenic cell death in human PC-3 cells assessed as increase in CRT translocation to cell surface at 50 to 200 nM measured after 12 hrs by DAPI staining based analysis; format: functional; conditions: dose 50-200 nM
PC-3 [15] = assay: Induction of apoptosis in human PC-3 cells assessed as viable cells at 100 nM measured after 24 hrs by annexin V-FITC and PI staining based flow cytometry analysis (reference value: 90.6%); format: functional; conditions: read-out: Activity
PC-3 [16] = assay: Induction of apoptosis in human PC-3 cells assessed as viable cells at 200 nM measured after 24 hrs by annexin V-FITC and PI staining based flow cytometry analysis (reference value: 90.6%); format: functional; conditions: read-out: Activity
[17] = Antitumor immunity against mouse RM1 cells homografted in C57BL/6 mouse model assessed as increase in tumor infiltrating CD3+CD8+T cells (CTLs) at 10 mg/kg, iv administered every two days for 14 days by flow cytometry analysis (reference value: 0.89%); format: functional; conditions: time 14 day
PC-3 [18] = assay: Induction of cell cycle arrest in human PC-3 cells assessed as accumulation of cells at G1 phase at 50 nM incubated for 24 hrs by flow cytometry analysis (reference value: 49.4%); format: functional
PC-3 [19] = assay: Induction of cell cycle arrest in human PC-3 cells assessed as accumulation of cells at G2/M phase at 100 nM incubated for 24 hrs by flow cytometry analysis (reference value: 19.5%); format: functional
PC-3 [20] = assay: Induction of cell cycle arrest in human PC-3 cells assessed as increase in histone H3at Ser10 residues at 50 to 200 nM incubated for 24 hrs by DAPI staining based analysis; format: functional; conditions: dose 50-200 nM
HUVEC = assay: Disruption of vasculature in HUVEC cells assessed as interruption of tubelike network formation incubated for 6 hrs by inverted fluorescence microscope analysis; format: functional, cell-based; conditions: Homo sapiens, dose 50-200 nM
[21] = Toxicity in ICR mouse assessed as effect on WBC count at 10 mg/kg, ip measured for 14 days; format: organism-based; conditions: in vivo, 336 h, time 14 day
PC-3 [22] = assay: Inhibition of autophagy in human PC-3 cells assessed as increase in number of autophagosomes at 50 to 200 uM measured after 3 hrs by immunofluorescence imaging based analysis; format: functional, cell-based; conditions: dose 50-200 µM
PC-3 [23] = assay: Inhibition of autophagy in human PC-3 cells assessed as decrease in colocalization region at 50 to 200 uM measured after 3 hrs by immunofluorescence imaging based analysis; format: functional, cell-based; conditions: dose 50-200 µM
[24] = Toxicity in ICR mouse assessed as effect on heart at 10 mg/kg, ip measured for 14 days by H and E staining based analysis; format: organism-based; conditions: in vivo, 336 h, time 14 day
PC-3 [25] = assay: Induction of apoptosis in human PC-3 cells assessed as increase in Cl-PARP level at 50 to 200 nM incubated for 24 hrs by Western blot analysis; format: functional, cell-based; conditions: dose 50-200 nM
PC-3 [26] = assay: Inhibition of V-ATPase activity in lysosomes of human PC-3 cells assessed as decrease in fluorescence at 50 to 200 nM incubated for 24 hrs by Lyso tracker red staining based inverted fluorescent microscopic analysis; format: subcellular; conditions: Lysosome, dose 50-200 nM
MDA-MB-231 = assay: Antiproliferative activity against human MDA-MB-231 cells assessed as inhibition of cell growth after 72 hrs by MTT assay; format: functional, cell-based; conditions: MDA-MB-231, 72 h
PC-3 [27] = assay: Induction of cell cycle arrest in human PC-3 cells assessed as accumulation of cells at S phase at 200 nM incubated for 24 hrs by flow cytometry analysis (reference value: 31.3%); format: functional
PC-3 [28] = assay: Induction of apoptosis in human PC-3 cells assessed as necrotic cells at 100 nM measured after 24 hrs by annexin V-FITC and PI staining based flow cytometry analysis (reference value: 6.01%); format: functional
PC-3 [29] = assay: Induction of apoptosis in human PC-3 cells assessed as early apoptotic cells at 100 nM measured after 24 hrs by annexin V-FITC and PI staining based flow cytometry analysis (reference value: 1.03%); format: functional
[30] = Antitumor immunity against mouse RM1 cells homografted in C57BL/6 mouse model assessed as increase in tumor infiltrating helper T lymphocytes at 5 mg/kg, iv administered every two days for 14 days by flow cytometry analysis (reference value: 6.59%); format: functional; conditions: time 14 day
PC-3 [31] = assay: Induction of apoptosis in human PC-3 cells assessed as downregulation of bcl-2 level at 50 to 200 nM incubated for 24 hrs by Western blot analysis; format: functional, cell-based; conditions: dose 50-200 nM

## COc1cc(-c2nc(C(N)=O)cc3cc4c(cc23)OCCO4)cc(Br)c1OC
[1]
  Activity: Non-Toxic
PC-3 [2]
  Activity: inactive
PC-3 [3]
  inhibition: 15.8%
PC-3 [4]
  Activity: Active
PC-3 [5]
  Activity: Active
[6]
  Activity: Non-Toxic
A549
  inhibition: Active
[7]
  Activity: 1.59%
PC-3 [8]
  Activity: 17.9%
PC-3 [9]
  Activity: Active
PC-3 [10]
  Activity: 65.8%
[11]
  inhibition in vivo at 5 mg/kg: 54.6%
PC-3 [12]
  Activity: 1.93%
PC-3 [13]
  Activity: 6.91%
PC-3 [14]
  Activity: Active
PC-3 [15]
  viability at 0.1 µM: 61.7%
PC-3 [16]
  viability at 0.2 µM: 50.9%
[17]
  Activity: 2.27%
PC-3 [18]
  Activity: 39.8%
PC-3 [19]
  Activity: 42.8%
PC-3 [20]
  Activity: Active
HUVEC
  Activity: Active
[21]
  Activity: Non-Toxic
PC-3 [22]
  inhibition: Active
PC-3 [23]
  inhibition: Active
[24]
  Activity: Non-Toxic
PC-3 [25]
  Activity: Active
PC-3 [26]
  inhibition: Active
MDA-MB-231
  IC50: 130 nM
PC-3 [27]
  Activity: 17.1%
PC-3 [28]
  Activity: 6.41%
PC-3 [29]
  Activity: 21.6%
[30]
  Activity: 10.9%
PC-3 [31]
  Activity: Active
